Consider one compound from paper PMC11279797, “Shifting Mycobacterial Serine Hydrolase Activity Visualized Using Multi-Layer In-Gel Activity Assays” (Molecules, 2024).

The structures appear in SMILES notation.

In this assay the target is T1, LipN (Mycolicibacterium smegmatis, UniProt I7G6G5).
T1 sequence (I7G6G5 1-378): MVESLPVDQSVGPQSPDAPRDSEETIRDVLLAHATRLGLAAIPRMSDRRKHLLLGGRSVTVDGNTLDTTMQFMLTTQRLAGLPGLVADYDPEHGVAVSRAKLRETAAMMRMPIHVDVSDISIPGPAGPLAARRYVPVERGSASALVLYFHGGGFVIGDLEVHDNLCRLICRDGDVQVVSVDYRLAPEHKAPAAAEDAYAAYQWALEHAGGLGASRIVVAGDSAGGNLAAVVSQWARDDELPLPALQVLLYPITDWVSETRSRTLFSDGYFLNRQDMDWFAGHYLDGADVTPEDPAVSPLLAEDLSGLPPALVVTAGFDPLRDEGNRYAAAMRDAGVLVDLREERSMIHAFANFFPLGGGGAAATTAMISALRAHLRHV
In words: fluorogenic ester hydrolysis, initial rates, Michaelis-Menten fit. In kind it is biochemical. As to conditions: PBS pH 7.4, 0.1 mg/mL acetylated BSA, 25 C.

As for `O=C(OCOc1ccc2c(c1)Oc1cc(OCOC(=O)c3cnco3)ccc1C21OC(=O)c2ccccc21)c1cnco1` [compound 7, substrate 7], the KM entry is listed as “Msmeg LipN has high enzymatic activity against the oxazole ester substrate”.
